From patent US20100273656A1, “COMPOSITION AND METHOD FOR SELECTIVE HERBICIDE” (priority 2002, published 2010)
Where two headings read alike, the source gives them in different places.

Columns and labels:
grass [1] = experiment: Example 1 field test of iron chelates, grass damage; assay type: in vivo; conditions: field, sprayed once at 100 ml/m^2, 5 days after spraying
Protocol: (§1) The following non-limiting examples serve to further describe the invention. Unless otherwise specified, all of the iron solutions were made using the same molar concentration of iron ion as chelating agent. All of the outside tests were done on areas of mixed grass and dandelions that were at least 2 months old. For the greenhouse tests, dandelions were grown in a commercial greenhouse mix, using supplemental lighting and heating. Each plant was grown in a 2¼ inch pot to a minimum diameter of 20 cm. All of the solutions were sprayed onto the plants at a rate of 100 ml/m^2. The ferrous sulfate formulations that were used in examples 1, 2, 8 and 9 contained 1% iron (180 mM), 18 mM EDTA, 1% citric acid and 0.5% urea. In all of the examples, the amount of iron is identified in brackets as the percent iron on a weight basis.
(§2) All plant damage was assessed using a qualitative rating scale from 0 to 9.
(§3) All of the iron chelates were sprayed once at 0.2% Fe^+3 (35.8 mM), at a volume of 100 ml/m^2 onto 0.5 m^2 areas of mixed grass and dandelions. The spraying of the test was followed by 2 days of rain-free weather. Observations were made 5 days after spraying.

dandelion [2] = experiment: Example 14 field dandelion test of iron chelates and 50:50 mixtures; assay type: in vivo, Taraxacum officinale; set-up: Surviving Dandelions (%): concentration or dose not given beside the values
Text: Solutions were made of FeHEDTA (0.2% Fe), FeEDTA (0.2% Fe), FeEDDS (0.4% Fe), and FeMGDA (0.4% Fe). For the combinations, these 4 solutions were mixed together in a 1:1 ratio. The plots (0.25 m^2) were sprayed 3 times at weekly intervals at a rate of 0.1 L/m^2. The plots contained a mixture of dandelion and hard fescue turfgrass.

dandelions [3] = experiment: Example 1 field test of iron chelates, dandelion damage; assay type: in vivo, Taraxacum officinale; conditions: sprayed once at 100 ml/m^2, 5 days after spraying
Protocol: as §1, §2, §3

perennial ryegrass [4] = experiment: Example 17 iron chelates with Killex, perennial ryegrass; assay type: in vivo
Protocol: (§4) Plants were fertilized with an all purpose water-soluble fertilizer mix of 20-20-20 (N-P-K; Plant-Prod®) as needed. All broadleaf weeds were grown individually in a 2¼-inch pot until they were a suitable size for herbicide tests (actual weed size is reported in examples below). Perennial ryegrass was also grown in 2¼-inch pots, however many grass seeds were sown in the pot to simulate a small section of turf. Grass plants were continually trimmed to a height of 4 cm, simulating that of a homeowner's lawn. For field tests, plots ¼ m^2 in size were marked out in areas containing the targeted broadleaf weed species growing in turf grass. Plots were continually mowed to simulate a homeowner's lawn. […] In all of the examples, the amounts of the various herbicide components are identified as a percent on a weight basis.
(§5) Killex® (Scotts Canada, Ltd., Ontario, Canada) is a commonly used selective lawn herbicide and was used as the commercial herbicide for herbicide combinations. The labeled dilution and application rates for Killex® are 6 ml into 1 L of solution (0.6%) applied at 200 ml/m^2.
(§6) All visual plant damage assessments were made using a quantitative rating scale; percent control relative to the untreated check (0=no effect; 100=plant death).
(§7) Materials and Methods: This trial was conducted in the greenhouse. Nine pots of white clover and 10 pots of perennial ryegrass were selected for each treatment. Herbicidal solutions were prepared using deionized water. The treatments were applied using a handheld trigger sprayer at 200 ml/m^2. All treatments were applied once. Phytotoxicity (%) was assessed 4, 7, and 14 days after application (A4, A7, and A14).

white clover = experiment: Example 17 iron chelates with Killex, white clover; assay type: in vivo
Protocol: as §4, §5, §6, §7

dandelions [5] = experiment: Example 16 metal salts of EDTA, greenhouse dandelion mortality; assay type: in vivo, Taraxacum officinale; conditions: for Dead Dandelion (#/20): pH 7
Protocol: This test investigated various metal chelates. All chelate solutions contained 0.4% metal ions with 10% excess chelator, and were adjusted to pH 7. For the combinations, these 4 solutions were mixed together in a 1:1 ratio. The solutions were sprayed onto greenhouse grown dandelions at a rate of 100 ml/m^2. The test was re-sprayed after 7 days.

turf grasses = conditions: for Plant Death (%) Grass: 3 days after second spray; for Plant Damage (0 to 9) Grass: 3 days after second spray (re-sprayed after 9 days)
Protocol: as §1, §2
(§8) This test investigated the effect of 10% chelation and pH on potted grass and dandelions. All of the solutions contained 10% ferrous sulfate heptahydrate, resulting in a Fe^+2 concentration of 2% (358.1 mM). EDTA and EDDS were added at 1/10th of the iron molar concentration (35.8 mM). MH was added 1%. The dandelions and turf grasses were sow in separate pots 3 weeks prior to the start of the test.
(§9) The plants were re-sprayed after 9 days.

grass [6] = experiment: Example 2 field test of FeEDDS and FeHEDTA at pH 3 and 7, grass; assay type: in vivo; conditions: solution pH 2.6-3.0; field, 0.1 L/m^2, 4 days after spraying
Protocol: as §1, §2
(§10) The FeEDDS and FeHEDTA solutions contained 0.2% Fe^+3 (35.8 mM). The ferrous sulfate contained 1% Fe^+2 (179.1 mM). The solutions were sprayed at a rate of 0.1 L/m^2 onto 2 plots of 0.5 m^2 of mixed grass and dandelions. Observations were made 4 days after spraying.

[7] = system: dandelions (Taraxacum officinale); experiment: Example 9 lawn restoration, dandelion coverage; assay type: in vivo
Protocol: (§11) Na4EDTA was added to the ferrous sulfate solution at 1.5% (36 mM). The molar level of EDTA is 1/10 that of the iron ions. […] The urea is added as a nitrogen fertilizer source to encourage the growth of the grasses.

dandelions [8] = experiment: Example 7 potassium nonanoate with FeHEDTA, greenhouse dandelions; assay type: in vivo, Taraxacum officinale; conditions: for Dead Plants (#/10): 8 + 5 days after spraying
Protocol: as §1, §2
This test compared the damaged caused by combinations of fatty acid and FeHEDTA. FeHEDTA was used at a concentration to 35.8 mM. The treatment with 0.1% Fe contained twice the molar amount of chelating agent as iron. The treatment with 0.2% iron contained the same molar amount of chelating agent as iron Potassium nonanoate (KC9) was used at 0.84%. The plants were re-sprayed 8 days after the first spray.

dock (Rumex crispus) = experiment: Example 9 lawn restoration, dock coverage; assay type: in vivo; conditions: after 18 days, sprayed twice
Protocol: as §11

grass [9] = experiment: Example 9 lawn restoration, grass coverage and damage; assay type: in vivo; conditions: after 18 days, sprayed twice
Protocol: as §11

dandelions [10] = experiment: Example 3 FeSO4, EDTA, EDDS and MH combinations on potted dandelions; assay type: in vivo, Taraxacum officinale; conditions: for Plant Death (%) Dandelion: 3 days after second spray; for Plant Damage (0 to 9) Dandelion: 3 days after second spray (re-sprayed after 9 days)
Protocol: as §1, §2, §8, §9

dandelions [11] = experiment: Example 2 field test of FeEDDS and FeHEDTA at pH 3 and 7, dandelion; assay type: in vivo, Taraxacum officinale; conditions: solution pH 2.6-3.0, 0.1 L/m^2, 4 days after spraying
Protocol: as §1, §2, §10

[12] = system: daisy plants (Bellis perennis BELPE); experiment: Example 8 field daisy test of iron solutions; assay type: in vivo; conditions: 0.5 L/m^2, 6 days after spraying
Protocol: as §1

perennial ryegrass [13] = experiment: Example 21 Fe chelates with Killex, perennial ryegrass; assay type: in vivo; conditions: A29 = 29 days after treatment
Protocol: as §4, §5, §6
(§12) Materials and Methods: This trial was conducted in the greenhouse. […] Phytotoxicity (%) was assessed 29 days after treatment (A29).

dandelion [14] = experiment: Example 21 Fe chelates with Killex, dandelion; assay type: in vivo, Taraxacum officinale; conditions: A29 = 29 days after treatment
Protocol: as §4, §5, §6, §12

[15] = day 6, sprayed 3 times at weekly intervals
[16] = A4 = 4 days after application, 0=no effect, 100=plant death
[17] = A14 = 14 days after application

## FeEDTA
Grass [1]
  Grass Damage (0 to 9): 1
Dandelion [2]; day 0
  Area Covered by Dandelion (%): 30%
  Dandelion Count (#/0.25 m^2): 56 #/0.25 m^2
Dandelion [2]; day 6
  Dandelion Count (#/0.25 m^2): 33 #/0.25 m^2
  Surviving Dandelions (%): 59%
Dandelion [2]; [15]
  Area Covered by Dandelion (%): 10%
Dandelion [2]; day 11
  Dandelion Necrosis (%): 90%
Dandelion [2]; day 13
  Dandelion Count (#/0.25 m^2): 20 #/0.25 m^2
  Surviving Dandelions (%): 36%
Dandelion [2]; day 15
  Area Covered by Dandelion (%): 7%
Dandelion [2]; day 18
  Dandelion Necrosis (%): 98%
Dandelion [2]; day 21
  Area Covered by Dandelion (%): 1%
  Dandelion Count (#/0.25 m^2): 19 #/0.25 m^2
  Surviving Dandelions (%): 34%
Dandelion [2]; day 33
  Dandelion Necrosis (%): 90%
Dandelions [3]
  Dandelion Damage (0 to 9): 8.3 0 to 9
Perennial ryegrass [4]; A4
  Phytotoxicity (%) against perennial ryegrass: 4%
Perennial ryegrass [4]; A7
  Phytotoxicity (%) against perennial ryegrass: 2%
Perennial ryegrass [4]; A14
  Phytotoxicity (%) against perennial ryegrass: 0%
White clover; [16]
  Phytotoxicity (%) against white clover: 15%
White clover; A7 = 7 days after application
  Phytotoxicity (%) against white clover: 15%
White clover; [17]
  Phytotoxicity (%) against white clover: 6%
Dandelions [5]; Example 16, text
  herbicidal comparison of metal EDTA chelates, in words: better herbicide than Al EDTA, Cu EDTA and ZnEDTA
Dandelions [5]; day 7
  Dead Dandelion (#/20): 10 #/20
Dandelions [5]; day 10 (re-sprayed after 7 days)
  Dead Dandelion (#/20): 17 #/20

## O=S(=O)([O-])[O-].[Fe+2] [FeSO4, ferrous sulfate]
Turf grasses; pH 3
  Plant Death (%) Grass: 0%
  Plant Damage (0 to 9) Grass: 4
Turf grasses; pH 6
  Plant Death (%) Grass: 0%
  Plant Damage (0 to 9) Grass: 0
Grass [1]
  Grass Damage (0 to 9): 7
Grass [6]
  Grass Damage (0 to 9): 7.0 0 to 9
[7]; Example 9, text
  effect on dandelion (and dock) in the plots, in words: did not appear to reduce the area covered by dandelions
[7]; after 18 days, sprayed twice
  Plot Area Covered (%) By: Dandelion: 65%
Dandelions [8]; 8 + 5 days after spraying (re-sprayed after 8 days), listed as FeSO4 (0.2% Fe^+2)
  Plant Damage (0 to 9): 0.2 0 to 9
Dandelions [8]; 8 + 5 days after spraying (re-sprayed after 8 days), listed as FeSO4 (1% Fe^+2)
  Plant Damage (0 to 9): 7.2 0 to 9
Dandelions [8]; 8 + 5 days after spraying (re-sprayed after 8 days), listed as FeSO4 (2% Fe^+2)
  Plant Damage (0 to 9): 8.4 0 to 9
Dandelions [8]; listed as FeSO4 (0.2% Fe^+2)
  Dead Plants (#/10): 0 #/10
Dandelions [8]; listed as FeSO4 (1% Fe^+2)
  Dead Plants (#/10): 5 #/10
Dandelions [8]; listed as FeSO4 (2% Fe^+2)
  Dead Plants (#/10): 8 #/10
Dandelions [8]; 7 days after spraying, listed as FeSO4 (0.2% Fe^+2)
  Plant Damage (0 to 9): 0.8 0 to 9
Dandelions [8]; 7 days after spraying, listed as FeSO4 (1% Fe^+2)
  Plant Damage (0 to 9): 4.4 0 to 9
Dandelions [8]; 7 days after spraying, listed as FeSO4 (2% Fe^+2)
  Plant Damage (0 to 9): 6.2 0 to 9
Dandelions [3]
  Dandelion Damage (0 to 9): 6.3 0 to 9
Dock (Rumex crispus)
  Plot Area Covered (%) By: Dock: 14%
Grass [9]
  Grass Damage (0 to 9): 1
  Plot Area Covered (%) By: Grass: 20%
Dandelions [10]; pH 3
  Plant Death (%) Dandelion: 76%
  Plant Damage (0 to 9) Dandelion: 8.2 0 to 9
Dandelions [10]; pH 6
  Plant Death (%) Dandelion: 17%
  Plant Damage (0 to 9) Dandelion: 6.0 0 to 9
Dandelions [11]
  Dandelion Damage (0 to 9): 7.0 0 to 9
[12]
  Daisy Mortality (%): 6%

## CC(C(=O)[O-])N(CC(=O)[O-])CC(=O)[O-].[Fe+3] (centres unmarked) [FeMGDA]
Perennial ryegrass [13]
  Phytotoxicity (%) on perennial ryegrass: 0%
Dandelion [2]; day 0
  Area Covered by Dandelion (%): 30%
  Dandelion Count (#/0.25 m^2): 72 #/0.25 m^2
Dandelion [2]; day 6
  Dandelion Count (#/0.25 m^2): 71 #/0.25 m^2
  Surviving Dandelions (%): 99%
Dandelion [2]; [15]
  Area Covered by Dandelion (%): 17%
Dandelion [2]; day 11
  Dandelion Necrosis (%): 85%
Dandelion [2]; day 13
  Dandelion Count (#/0.25 m^2): 43 #/0.25 m^2
  Surviving Dandelions (%): 60%
Dandelion [2]; day 15
  Area Covered by Dandelion (%): 12%
Dandelion [2]; day 18
  Dandelion Necrosis (%): 99%
Dandelion [2]; day 21
  Area Covered by Dandelion (%): 2%
  Dandelion Count (#/0.25 m^2): 19 #/0.25 m^2
  Surviving Dandelions (%): 26%
Dandelion [2]; day 33
  Dandelion Necrosis (%): 80%
Perennial ryegrass [4]; A4
  Phytotoxicity (%) against perennial ryegrass: 0%
Perennial ryegrass [4]; A7
  Phytotoxicity (%) against perennial ryegrass: 0%
Perennial ryegrass [4]; A14
  Phytotoxicity (%) against perennial ryegrass: 0%
Dandelion [14]
  Phytotoxicity (%) against dandelion: 12%
White clover; [16]
  Phytotoxicity (%) against white clover: 4%
White clover; A7 = 7 days after application
  Phytotoxicity (%) against white clover: 5%
White clover; [17]
  Phytotoxicity (%) against white clover: 2%
